Test results as given in patent US20040086901A1, “Database for analyzing gene function and method of analyzing gene function by dspa” (priority 2000, published 2004).

What was measured:
Assay type in all cases: cell-based, mouse
[1] = tested on: NIH3T3 cells overexpressing Ha-ras; experiment: MTT cell viability, drug sensitivity of Ha-ras overexpressing cells vs parental line; conditions: Ha-ras high-expressing cells / parental cell line, 3 to 4 days
Outline: (§1)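 Drugs were serially diluted twofold across nine wells. Cells were then added from a suspension of 1×10^5 cells/ml and cultured for 3 to 4 days. After a 4 h MTT incubation at 37 °C and acid-isopropanol solubilisation, formazan was measured at 574 nm and IC40 ratios were derived.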

[2] = tested on: NIH3T3 cells overexpressing Ki-ras; experiment: MTT cell viability, Ki-ras overexpressing cells vs parental line; conditions: Ki-ras high-expressing cells / parental cell line, 3 to 4 days
Outline: (§2)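 Stable NIH3T3 transfectants (cDNA in pRc-CMV-type vector, G-418-selected, high expressers picked by Western blot) and parental cells were seeded at 1×10^5 cells/ml into twofold serial drug dilutions and grown 3–4 days. MTT formazan was read at 574/655 nm, and log ratios of IC40 values were derived.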

[3] = tested on: NIH3T3 cells overexpressing N-ras; experiment: MTT cell viability, N-ras overexpressing cells vs parental line; conditions: N-ras high-expressing cells / parental cell line, 3 to 4 days
Outline: as §2

[4] = tested on: NIH3T3 cells overexpressing p16/INK4A; experiment: MTT cell viability, p16/INK4A overexpressing cells vs parental line; conditions: p16/INK4A high-expressing cells / parental cell line, 3 to 4 days
Outline: as §2

[5] = tested on: NIH3T3 cells overexpressing m-calpain; experiment: MTT cell viability, m-calpain overexpressing cells vs parental line; conditions: m-calpain high-expressing cells / parental cell line, 3 to 4 days
Outline: as §1

[6] = tested on: NIH3T3 cells overexpressing calpastatin; experiment: MTT cell viability, calpastatin overexpressing cells vs parental line; conditions: calpastatin high-expressing cells / parental cell line, 3 to 4 days
Outline: as §2

[7] = tested on: NIH3T3 cells overexpressing CP-antisense; experiment: MTT cell viability, CP-antisense cells vs parental line; conditions: 3 to 4 days
Outline: as §2

[8] = tested on: NIH3T3 cells overexpressing DAN; experiment: MTT cell viability, DAN overexpressing cells vs parental line; conditions: DAN high-expressing cells / parental cell line, 3 to 4 days
Outline: as §2

[9] = tested on: NIH3T3 cells overexpressing cystatin E; experiment: MTT cell viability, cystatin E overexpressing cells vs parental line; conditions: cystatin E high-expressing cells / parental cell line, 3 to 4 days
Outline: as §2

[10] = tested on: NIH3T3 cells overexpressing caspase-3; experiment: MTT cell viability, caspase-3 overexpressing cells vs parental line; conditions: caspase-3 high-expressing cells / parental cell line, 3 to 4 days
Outline: as §1

[11] = tested on: NIH3T3 cells overexpressing PDGF-R-Del; experiment: MTT cell viability, PDGF-R-Del overexpressing cells vs parental line; conditions: PDGF-R-Del high-expressing cells / parental cell line, 3 to 4 days
Outline: as §2

[12] = tested on: NIH3T3 cells overexpressing STAT1; experiment: MTT cell viability, STAT1 overexpressing cells vs parental line; conditions: STAT1 high-expressing cells / parental cell line, 3 to 4 days
Outline: as §1

[13] = tested on: NIH3T3 cells overexpressing CBP8; experiment: MTT cell viability, CBP8 overexpressing cells vs parental line; conditions: CBP8 high-expressing cells / parental cell line, 3 to 4 days
Outline: as §2

[14] = tested on: NIH3T3 cells overexpressing PKCalpha-KN; experiment: MTT cell viability, PKCalpha-KN overexpressing cells vs parental line; conditions: 3 to 4 days
Outline: as §1

[15] = tested on: NIH3T3 cells, TPA (PKC downreg); experiment: MTT cell viability, TPA (PKC downreg) cells vs parental line; conditions: 3 to 4 days
[16] = tested on: NIH3T3 cells overexpressing JNK-DN; experiment: MTT cell viability, JNK-DN overexpressing cells vs parental line; conditions: JNK-DN high-expressing cells / parental cell line, 3 to 4 days
Outline: as §2

[17] = tested on: NIH3T3 cells overexpressing p38-DN; experiment: MTT cell viability, p38-DN overexpressing cells vs parental line; conditions: p38-DN high-expressing cells / parental cell line, 3 to 4 days
Outline: as §1

[18] = tested on: NIH3T3 cells overexpressing HSP4O; experiment: MTT cell viability, HSP4O overexpressing cells vs parental line; conditions: HSP4O high-expressing cells / parental cell line, 3 to 4 days
Outline: as §2

[19] = tested on: NIH3T3 cells overexpressing HNF1; experiment: MTT cell viability, HNF1 overexpressing cells vs parental line; conditions: HNF1 high-expressing cells / parental cell line, 3 to 4 days
Outline: as §1

[20] = tested on: NIH3T3 cells overexpressing HNF3b; experiment: MTT cell viability, HNF3b overexpressing cells vs parental line; conditions: HNF3b high-expressing cells / parental cell line, 3 to 4 days
Outline: as §1

[21] = PKCalpha-KN (first of two lines) high-expressing cells / parental cell line
[22] = PKCalpha-KN (second of two lines) high-expressing cells / parental cell line

| Structure (SMILES) | logarithmic value of ratio of IC40 values [1] | logarithmic value of ratio of IC40 values [2] | logarithmic value of ratio of IC40 values [3] | logarithmic value of ratio of IC40 values [4] | logarithmic value of ratio of IC40 values [5] | logarithmic value of ratio of IC40 values [6] | logarithmic value of ratio of IC40 values [7] | logarithmic value of ratio of IC40 values [8] | logarithmic value of ratio of IC40 values [9] | logarithmic value of ratio of IC40 values [10] | logarithmic value of ratio of IC40 values [11] | logarithmic value of ratio of IC40 values [12] | logarithmic value of ratio of IC40 values [13] | logarithmic value of ratio of IC40 values [14, 21] | logarithmic value of ratio of IC40 values [14, 22] | logarithmic value of ratio of IC40 values [15] | logarithmic value of ratio of IC40 values [16] | logarithmic value of ratio of IC40 values [17] | logarithmic value of ratio of IC40 values [18] | logarithmic value of ratio of IC40 values [19] | further results |
| --- | --- | --- | --- | --- | --- | --- | --- | --- | --- | --- | --- | --- | --- | --- | --- | --- | --- | --- | --- | --- | --- |
| O=c1c(-c2ccc(O)cc2)coc2cc(O)cc(O)c12 [Genistein, genistein] | −0.35 | 0.00 | 0.42 | 0.40 | 0.18 | 0.127 | 0.00 | 0.20 | 0.21 | 0.04 | 0.33 | 0.10 | 0.10 | 0.16 | 0.24 | −0.09 | −0.10 | 0.00 | 0.00 | 0.234 | logarithmic value of ratio of IC40 values [20]: −0.21 |
| O=[As]O [NaAsO2, sodium arsenite] | 0.04 | 0.08 | −0.19 | 0.16 | −0.16 | 0 | 0.02 | −0.15 | 0.15 | 0.11 | 0.00 | 0.16 | 0.21 | 0.16 | 0.22 | −0.20 | −0.07 | 0.00 | −0.02 | −0.14 | logarithmic value of ratio of IC40 values [20]: 0.00 |
| CNc1ccc2oc(C[C@H]3O[C@@]4(CC[C@H]3C)O[C@H]([C@H](C)C(=O)c3ccc[nH]3)[C@H](C)C[C@H]4C)nc2c1C(=O)O [A23187] | −0.28 | 0.06 | 0.20 | 0.00 | 0.26 | −0.12 | −0.36 | 0.40 | 0.22 | 0.28 | 0.15 | 0.31 | 0.22 | 0.22 | −0.05 | −0.22 | −0.08 | −0.12 | −0.16 | 0.35 | logarithmic value of ratio of IC40 values [20]: −0.16 |
